US20140243194A1, “Fungicidal substituted 1--1H-[1,2,4]triazole compounds” (BASF SE, priority 2011, published 2014)

How the values were obtained:
[1] = system: Septoria tritici; experiment: Preventative control of leaf blotch on wheat caused by Septoria tritici (Septtr P7); type: in vivo; details: 16 ppm spray, wheat inoculated seven days later
Experimental: The spray solutions were prepared in several steps: The stock solution were prepared: a mixture of acetone and/or dimethylsulfoxide and the wetting agent/emulsifier Wettol, which is based on ethoxylated alkylphenoles, in a relation (volume) solvent-emulsifier of 99 to 1 was added to 25 mg of the compound to give a total of 5 ml. Water was then added to total volume of 100 ml. This stock solution was diluted with the described solvent-emulsifier-water mixture to the given concentration. G2. Preventative Control of Leaf Blotch on Wheat Caused by Septoria tritici (Septtr P7) Leaves of pot-grown wheat seedling were sprayed to run-off with an aqueous suspension of the active compound or their mixture, prepared as described. The plants were allowed to air-dry. Seven days later the plants were inoculated with an aqueous spore suspension of Septoria tritici. Then the trial plants were immediately transferred to a humid chamber at 18-22° C. and a relative humidity close to 100%. After 4 days the plants were transferred to a chamber with 18-22° C. and a relative humidity close to 70%. After 4 weeks the extent of fungal attack on the leaves was visually assessed as % diseased leaf area. […]

[2] = system: Botrytis cinerea; experiment: Preventative fungicidal control of Botrytis cinerea on leaves of green pepper (Botrci P1); type: in vivo; details: 150 ppm spray; green pepper inoculated next day; % diseased leaf area after 5 days; untreated control 100
Experimental: The spray solutions were prepared in several steps: The stock solution were prepared: a mixture of acetone and/or dimethylsulfoxide and the wetting agent/emulsifier Wettol, which is based on ethoxylated alkylphenoles, in a relation (volume) solvent-emulsifier of 99 to 1 was added to 25 mg of the compound to give a total of 5 ml. Water was then added to total volume of 100 ml. This stock solution was diluted with the described solvent-emulsifier-water mixture to the given concentration. G1 Preventative Fungicidal Control of Botrytis cinerea on Leaves of Green Pepper (Botrci P1) Young seedlings of green pepper were grown in pots to the 4 to 5 leaf stage. These plants were sprayed to run-off with an aqueous suspension, containing the concentration of active ingredient or their mixture mentioned in the table below. The next day the plants were inoculated with a aqueous biomalt solution containig the spore suspension of Botrytis cinerea. Then the plants were immediately transferred to a humid chamber. After 5 days at 22 to 24° C. and a relative humidity close to 100% the extent of fungal attack on the leaves was visually assessed as % diseased leaf area.

[3] = system: Botrytis cinerea; experiment: Long lasting control of Botrytis cinerea on leaves of green pepper (Botrci P7); type: in vivo; details: 63 ppm spray; green pepper inoculated 7 days later; untreated control 100
Experimental: The spray solutions were prepared in several steps: The stock solution were prepared: a mixture of acetone and/or dimethylsulfoxide and the wetting agent/emulsifier Wettol, which is based on ethoxylated alkylphenoles, in a relation (volume) solvent-emulsifier of 99 to 1 was added to 25 mg of the compound to give a total of 5 ml. Water was then added to total volume of 100 ml. This stock solution was diluted with the described solvent-emulsifier-water mixture to the given concentration. G4 Long Lasting Control of Botrytis cinerea on Leaves of Green Pepper (Botrci P7) Young seedlings of green pepper were grown in pots to the 4 to 5 leaf stage. These plants were sprayed to run-off with an aqueous suspension, containing the concentration of active ingredient or their mixture mentioned in the table below. The plants were then cultivated in the greenhouse for 7 days and then inoculated with a aqueous biomalt solution containig the spore suspension of Botrytis cinerea. Then the plants were immediately transferred to a humid chamber. After 5 days at 22 to 24° C. and a relative humidity close to 100% the extent of fungal attack on the leaves was visually assessed as % diseased leaf area.

[4] = system: Alternaria solani; experiment: Microtest: activity against early blight caused by Alternaria solani (Alteso); type: cell-based; details: micro titer plate, 405 nm, 7 days after inoculation, relative growth vs compound-free control (100%)
Experimental: Microtest The active compounds were formulated separately as a stock solution having a concentration of 10000 ppm in dimethyl sulfoxide. M1: Activity Against Early Blight Caused by Alternaria solani (Alteso) The stock solutions were mixed according to the ratio, pipetted onto a micro titer plate (MTP) and diluted with water to the stated concentrations. A spore suspension of Alternaria solani in an aqueous biomalt or yeast-bactopeptone-glycerine solution was then added. The plates were placed in a water vapor-saturated chamber at a temperature of 17° C. Using an absorption photometer, the MTPs were measured at 405 nm 7 days after the inoculation. The measured parameters were compared to the growth of the active compound-free control variant (100%) and the fungus-free and active compound-free blank value to determine the relative growth in % of the pathogens in the respective active compounds.

[5] = system: Septoria tritici; experiment: Curative control of leaf blotch on wheat caused by Septoria tritici (Septtr K7); type: in vivo; details: 250 ppm spray seven days after inoculation (curative), untreated control 90
Experimental: The spray solutions were prepared in several steps: The stock solution were prepared: a mixture of acetone and/or dimethylsulfoxide and the wetting agent/emulsifier Wettol, which is based on ethoxylated alkylphenoles, in a relation (volume) solvent-emulsifier of 99 to 1 was added to 25 mg of the compound to give a total of 5 ml. Water was then added to total volume of 100 ml. This stock solution was diluted with the described solvent-emulsifier-water mixture to the given concentration. G2 Curative Control of Leaf Blotch on Wheat Caused by Septoria tritici (Septtr K7) Leaves of pot-grown wheat seedling were inoculated with an aqueous spore suspension of Septoria tritici. Then the trial plants were immediately transferred to a humid chamber at 18-22° C. and a relative humidity close to 100%. After 4 days the plants were transferred to a chamber with 18-22° C. and a relative humidity close to 70%. Seven days after inoculation the plants were sprayed to run-off with an aqueous suspension of the active compound or their mixture, prepared as described. Then the plants were transferred back to the chamber with 18-22° C. and a relative humidity close to 70%. After 4 weeks the extent of fungal attack on the leaves was visually assessed as % diseased leaf area.

[6] = system: Phakopsora pachyrhizi; experiment: Protective control of soy bean rust on soy beans caused by Phakopsora pachyrhizi (Phakpa P2); type: in vivo; details: 250 ppm spray; soy bean inoculated 2 days later; untreated control 90
Experimental: The spray solutions were prepared in several steps:
The stock solution were prepared: a mixture of acetone and/or dimethylsulfoxide and the wetting agent/emulsifier Wettol, which is based on ethoxylated alkylphenoles, in a relation (volume) solvent-emulsifier of 99 to 1 was added to 25 mg of the compound to give a total of 5 ml. Water was then added to total volume of 100 ml. This stock solution was diluted with the described solvent-emulsifier-water mixture to the given concentration.
G3 Protective Control of Soy Bean Rust on Soy Beans Caused by Phakopsora pachyrhizi (Phakpa P2)
Leaves of pot-grown soy bean seedlings were sprayed to run-off with an aqueous suspension, containing the concentration of active ingredient or their mixture as described below. The plants were allowed to air-dry. The trial plants were cultivated for 2 days in a greenhouse chamber at 23-27° C. and a relative humidity between 60 and 80%. Then the plants were inoculated with spores of Phakopsora pachyrhizi. To ensure the success the artificial inoculation, the plants were transferred to a humid chamber with a relative humidity of about 95% and 20 to 24° C. for 24 h. The trial plants were cultivated for fourteen days in a greenhouse chamber at 23-27° C. and a relative humidity between 60 and 80%. The extent of fungal attack on the leaves was visually assessed as % diseased leaf area.

[7] = system: Puccinia recondita; experiment: Preventative control of brown rust on wheat caused by Puccinia recondita (Puccrt P7); type: in vivo; details: 250 ppm spray; wheat inoculated seven days later; untreated plants 90% infected
Experimental: The spray solutions were prepared in several steps: The stock solution were prepared: a mixture of acetone and/or dimethylsulfoxide and the wetting agent/emulsifier Wettol, which is based on ethoxylated alkylphenoles, in a relation (volume) solvent-emulsifier of 99 to 1 was added to 25 mg of the compound to give a total of 5 ml. Water was then added to total volume of 100 ml. This stock solution was diluted with the described solvent-emulsifier-water mixture to the given concentration. G3. Preventative Control of Brown Rust on Wheat Caused by Puccinia recondita (Puccrt P7) The first two developed leaves of pot-grown wheat seedling were sprayed to run-off with an aqueous suspension, containing the concentration of active ingredient or their mixture as described below. Seven days later the plants were inoculated with spores of Puccinia recondita. To ensure the success the artificial inoculation, the plants were transferred to a humid chamber without light and a relative humidity of 95 to 99% and 20 to 24° C. for 24 h. Then the trial plants were cultivated for 6 days in a greenhouse chamber at 20-24° C. and a relative humidity between 65 and 70%. The extent of fungal attack on the leaves was visually assessed as % diseased leaf area.

Row | SMILES | Disease (%) at 16 ppm Septtr P7 ([1]; % diseased leaf area after 4 weeks, untreated control 90) | Disease (%) at 16 ppm Septtr P7 ([1]; section C table) | Disease (%) at 150 ppm Botrci P1 [2] | Disease (%) at 63 ppm Botrci p7 [3] | Growth (%) at 0.008 ppm Alteso [4] | Disease (%) at 250 ppm Septtr K7 [5] | Disease (%) at 250 ppm Phakpa P2 [6] | infection (% diseased leaf area) Puccrt P7 [7]
1 | C#CCOC(Cn1cncn1)c1ccc(Oc2ccc(Cl)cc2)cc1Cl (centres unmarked) [DE 3801223 table 1, compound 30] | 60% | 60% | 60% | 80% | 48% | 40% | 70% | 
2 | C#CCOC(Cn1cncn1)(c1ccc(Oc2ccc(Cl)cc2)cc1Cl)C(C)C (centres unmarked) [I-4, 1-[2-[2-chloro-4-(4-chlorophenoxy)phenyl]-3-methyl-2-prop-2-ynoxy-butyl]-1,2,4-triazole] |  |  |  |  |  |  |  | 0%
